# Results as given in US6875451B2, “Compositions and methods for the treatment of primary and metastatic neoplastic diseases using arsenic compounds” (PolaRx Biopharmaceuticals Inc., priority 1997, dated 2005).
# Key:
# Assay type in all cases: cell-based
# [1] = system: PC-3; experiment: SRB growth assay, 2 days exposure, prostate cancer
# Method: (§1) Arsenic trioxide (1 mg/ml, 10 mg/ampoule, manufactured by Taylor Pharmaceuticals, Decatur, Ill.) was tested at five concentrations each at 10-fold dilutions, i.e., 10^−5, 10^−6, 10^−7, 10^−8 and 10^−9 μg/ml.
# (§2) The in vitro tests were performed by incubating the test cells in the presence of the indicated concentration of arsenic trioxide under standard culture conditions for a designated period of time, which is followed by a sulforhodamine B (SRB) protein assay to estimate cell viability or growth. The cell lines are organized into subpanels according to the origin of the cell lines, e.g., leukemia, breast cancer, etc. A description of the cell lines and method of testing is described in Monk et al. (1997, Anticancer Drug Des. 12:533-41) and Weinstein et al., (1997, Science 275:343-9), which are incorporated herein in their entirety.
# (§3) The measurement of an effect is expressed in Percentage Growth (PG). The measured effect of the compound on a cell line is calculated according to one or the other of the following two expressions: If (Mean ODtest−Mean ODzero)≧0. then PG=100×(Mean ODtest−Mean ODzero)/(Mean ODctrl−Mean ODzero) If (Mean ODtest−Mean ODzero)<0. then PG=100×(Mean ODtest−Mean ODzero)/(Mean ODzero where: • Mean ODzero=the average of optical density measurements of SRB-derived color just before exposure of cells to the test compounds; • Mean ODtest=the average of optical density measurements of SRB-derived color after exposure of cells to the test compound for a designated period of time; and • Mean ODctrl=the average of optical density measurements of SRB-derived color after with no exposure of cells to the test compound for a designated period of time
# (§4) The first two columns describe the subpanel (e.g., leukemia) and cell line (e.g., CCRF-CEM) involved. The next two columns list the Mean ODzero and Mean ODctrl; the next five columns list the Mean ODtest for each of five different concentrations. Each concentration is expressed as the log10 (molar or μg/ml). The next five columns list the calculated PGs for each concentration. The response parameters GI50, TGI and LC50 are interpolated values representing the concentrations at which the PG is +50, 0, and −50, respectively. Sometimes these response parameters cannot be obtained by interpolation. If, for instance, all of the PGs in a given row exceed +50, then none of the three parameters can be obtained by interpolation. In such a case, the value given for each response parameter is the highest concentration tested and is preceded by a “>” sign. This practice is extended similarly to the other possible situations where a response parameter cannot be obtained by interpolation.
# (§5) In the first set, the cells from 56 different cancer cell lines were exposed to five concentrations of arsenic trioxide continuously for two days prior to performing the SRB assay. In the second set, the cells from 50 different cell lines (a subset of the first 56 cell lines, plus the renal cancer cell line 786-0) were exposed continuously for six days prior to the SRB assay.
# [2] = system: DU-145; experiment: SRB growth assay, 2 days exposure, prostate cancer
# Method: as §1, §2, §3, §4, §5
# [3] = system: MALMI-3M; experiment: SRB growth assay, 6 days exposure, melanoma
# Method: as §1, §2, §3, §4, §5
# [4] = system: LOX IMVI; experiment: SRB growth assay, 6 days exposure, melanoma; conditions: LOX 1MVI
# Method: as §1, §2, §3, §4, §5
# [5] = system: UACC-62; experiment: SRB growth assay, 6 days exposure, melanoma; conditions: UACC-62, 6 days
# Method: as §1, §2, §3, §4, §5
# [6] = system: SK-MEL-2; experiment: SRB growth assay, 6 days exposure, melanoma; conditions: SK-MEL-2, 6 days
# Method: as §1, §2, §3, §4, §5
# [7] = system: SK-MEL-28; experiment: SRB growth assay, 6 days exposure, melanoma; conditions: SK-MEL-28, 6 days
# Method: as §1, §2, §3, §4, §5
# [8] = system: SK-MEL-5; experiment: SRB growth assay, 6 days exposure, melanoma; conditions: SK-MEL-5, 6 days
# Method: as §1, §2, §3, §4, §5
# [9] = system: UACC-257; experiment: SRB growth assay, 6 days exposure, melanoma; conditions: UACC-257, 6 days
# Method: as §1, §2, §3, §4, §5
substance,measurement,setting,value
arsenic trioxide,TGI,[1],0.011 ng/mL
same,Percent Growth,[1]; log10 conc −4.9,−4%
same,Percent Growth,[1]; log10 conc −5.9,67%
same,Percent Growth,[1]; log10 conc −6.9,88%
same,Percent Growth,[1]; log10 conc −7.9,91%
same,Percent Growth,[1]; log10 conc −8.9,103%
same,TGI,[2],>0.0126 ng/mL
same,Percent Growth,[2]; log10 conc −4.9,64%
same,Percent Growth,[2]; log10 conc −5.9,96%
same,Percent Growth,[2]; log10 conc −6.9,106%
same,Percent Growth,[2]; log10 conc −7.9,131%
same,Percent Growth,[2]; log10 conc −8.9,91%
same,TGI,[3],2.78E−06
same,Mean Optical Densities,[3]; Log 10 Concentration −4.9,0.005
same,Percent Growth,[3]; Log 10 Concentration −4.9,−96%
same,Mean Optical Densities,[3]; Log 10 Concentration −5.9,0.383
same,Percent Growth,[3]; Log 10 Concentration −5.9,50%
same,Mean Optical Densities,[3]; Log 10 Concentration −6.9,0.823
same,Percent Growth,[3]; Log 10 Concentration −6.9,132%
same,Mean Optical Densities,[3]; Log 10 Concentration −7.9,0.595
same,Percent Growth,[3]; Log 10 Concentration −7.9,90%
same,Mean Optical Densities,[3]; Log 10 Concentration −8.9,0.702
same,Percent Growth,[3]; Log 10 Concentration −8.9,110%
same,TGI,[4],1.32E−07
same,Mean Optical Densities,[4]; Log 10 Concentration −4.9,−0.001
same,Percent Growth,[4]; Log 10 Concentration −4.9,−100%
same,Mean Optical Densities,[4]; Log 10 Concentration −5.9,0.002
same,Percent Growth,[4]; Log 10 Concentration −5.9,−88%
same,Mean Optical Densities,[4]; Log 10 Concentration −6.9,0.053
same,Percent Growth,[4]; Log 10 Concentration −6.9,2%
same,Mean Optical Densities,[4]; Log 10 Concentration −7.9,1.666
same,Percent Growth,[4]; Log 10 Concentration −7.9,77%
same,Mean Optical Densities,[4]; Log 10 Concentration −8.9,2.000
same,Percent Growth,[4]; Log 10 Concentration −8.9,93%
same,TGI,[5],2.27E−06
same,Mean Optical Densities,[5]; Log 10 Concentration −4.9,0.001
same,Percent Growth,[5]; Log 10 Concentration −4.9,−98%
same,Mean Optical Densities,[5]; Log 10 Concentration −5.9,0.539
same,Percent Growth,[5]; Log 10 Concentration −5.9,34%
same,Mean Optical Densities,[5]; Log 10 Concentration −6.9,1.409
same,Percent Growth,[5]; Log 10 Concentration −6.9,92%
same,Mean Optical Densities,[5]; Log 10 Concentration −7.9,1.460
same,Percent Growth,[5]; Log 10 Concentration −7.9,95%
same,Mean Optical Densities,[5]; Log 10 Concentration −8.9,1.546
same,Percent Growth,[5]; Log 10 Concentration −8.9,101%
same,TGI,[6],5.63E−07
same,Percent Growth,[6]; Log 10 Concentration −4.9,−100%
same,Mean Optical Densities,[6]; Log 10 Concentration −5.9,0.128
same,Percent Growth,[6]; Log 10 Concentration −5.9,−40%
same,Mean Optical Densities,[6]; Log 10 Concentration −6.9,0.426
same,Percent Growth,[6]; Log 10 Concentration −6.9,74%
same,Mean Optical Densities,[6]; Log 10 Concentration −7.9,0.462
same,Percent Growth,[6]; Log 10 Concentration −7.9,87%
same,Mean Optical Densities,[6]; Log 10 Concentration −8.9,0.491
same,Percent Growth,[6]; Log 10 Concentration −8.9,97%
same,TGI,[7],1.86E−06
same,Percent Growth,[7]; Log 10 Concentration −4.9,−100%
same,Mean Optical Densities,[7]; Log 10 Concentration −5.9,0.488
same,Percent Growth,[7]; Log 10 Concentration −5.9,20%
same,Mean Optical Densities,[7]; Log 10 Concentration −6.9,1.797
same,Percent Growth,[7]; Log 10 Concentration −6.9,88%
same,Mean Optical Densities,[7]; Log 10 Concentration −7.9,1.906
same,Percent Growth,[7]; Log 10 Concentration −7.9,94%
same,Mean Optical Densities,[7]; Log 10 Concentration −8.9,2.012
same,Percent Growth,[7]; Log 10 Concentration −8.9,99%
same,TGI,[8],4.07E−06
same,Mean Optical Densities,[8]; Log 10 Concentration −4.9,0.013
same,Percent Growth,[8]; Log 10 Concentration −4.9,−93%
same,Mean Optical Densities,[8]; Log 10 Concentration −5.9,1.846
same,Percent Growth,[8]; Log 10 Concentration −5.9,96%
same,Mean Optical Densities,[8]; Log 10 Concentration −6.9,1.929
same,Percent Growth,[8]; Log 10 Concentration −6.9,101%
same,Mean Optical Densities,[8]; Log 10 Concentration −7.9,1.864
same,Percent Growth,[8]; Log 10 Concentration −7.9,97%
same,Mean Optical Densities,[8]; Log 10 Concentration −8.9,1.935
same,Percent Growth,[8]; Log 10 Concentration −8.9,102%
same,TGI,[9],5.83E−06
same,Mean Optical Densities,[9]; Log 10 Concentration −4.9,0.039
same,Percent Growth,[9]; Log 10 Concentration −4.9,−27%
same,Mean Optical Densities,[9]; Log 10 Concentration −5.9,0.504
same,Percent Growth,[9]; Log 10 Concentration −5.9,54%
same,Mean Optical Densities,[9]; Log 10 Concentration −6.9,0.832
same,Percent Growth,[9]; Log 10 Concentration −6.9,94%
same,Mean Optical Densities,[9]; Log 10 Concentration −7.9,0.857
same,Percent Growth,[9]; Log 10 Concentration −7.9,97%
same,Mean Optical Densities,[9]; Log 10 Concentration −8.9,0.872
same,Percent Growth,[9]; Log 10 Concentration −8.9,99%
same,CC50,[9]; read-out: LC50 (the source's name),> 12.6 µM
